# Molecular target: T1, Equilibrative nucleoside transporter 1 (Homo sapiens, UniProt Q99808)
# T1 sequence (Q99808 whole entry): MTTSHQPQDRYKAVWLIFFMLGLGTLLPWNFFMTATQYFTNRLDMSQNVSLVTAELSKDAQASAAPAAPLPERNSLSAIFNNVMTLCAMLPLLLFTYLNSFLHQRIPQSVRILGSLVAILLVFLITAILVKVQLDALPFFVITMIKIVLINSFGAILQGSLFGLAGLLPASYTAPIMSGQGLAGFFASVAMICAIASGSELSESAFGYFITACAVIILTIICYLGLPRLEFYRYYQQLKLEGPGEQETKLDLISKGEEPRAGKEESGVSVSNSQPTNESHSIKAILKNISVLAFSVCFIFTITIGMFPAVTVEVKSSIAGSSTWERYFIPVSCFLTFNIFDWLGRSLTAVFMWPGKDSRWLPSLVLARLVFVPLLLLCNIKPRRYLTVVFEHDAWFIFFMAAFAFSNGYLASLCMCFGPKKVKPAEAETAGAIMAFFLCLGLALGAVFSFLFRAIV
# Test: Displacement of 5-(SAENTA)-X8-fluorescein from K562 cell nucleoside transporter
# Assay type: cell-based
row,SMILES,Ki
1,OC[C@H]1O[C@@H](n2cnc3c(SCc4ccc(F)cc4)ncnc32)[C@H](O)[C@@H]1O,9.02 nM
2,OC[C@H]1O[C@@H](n2cnc3c(SCc4ccccc4Cl)ncnc32)[C@H](O)[C@@H]1O,99.5 nM
3,OC[C@H]1O[C@@H](n2cnc3c(SCc4cccc(Br)c4)ncnc32)[C@H](O)[C@@H]1O,20.5 nM
4,OC[C@H]1O[C@@H](n2cnc3c(SCc4ccccc4I)ncnc32)[C@H](O)[C@@H]1O,16.1 nM
5,OC[C@H]1O[C@@H](n2cnc3c(SCc4ccccc4F)ncnc32)[C@H](O)[C@@H]1O,19.9 nM
6,OC[C@H]1O[C@@H](n2cnc3c(SCc4cccc(Cl)c4)ncnc32)[C@H](O)[C@@H]1O,16 nM
7,OC[C@H]1O[C@@H](n2cnc3c(SCc4ccc(I)cc4)ncnc32)[C@H](O)[C@@H]1O,3.88 nM
8,OC[C@H]1O[C@@H](n2cnc3c(SCc4ccc(Br)cc4)ncnc32)[C@H](O)[C@@H]1O,9.98 nM
9,OC[C@H]1O[C@@H](n2cnc3c(SCc4cccc(I)c4)ncnc32)[C@H](O)[C@@H]1O,13.8 nM
10,OC[C@H]1O[C@@H](n2cnc3c(SCc4ccccc4Br)ncnc32)[C@H](O)[C@@H]1O,134 nM
11,OC[C@H]1O[C@@H](n2cnc3c(SCc4ccc(Cl)cc4)ncnc32)[C@H](O)[C@@H]1O,14.2 nM
12,OC[C@H]1O[C@@H](n2cnc3c(SCc4cccc(F)c4)ncnc32)[C@H](O)[C@@H]1O,11.2 nM

# Reference: ChEMBL document CHEMBL1147566, “Novel halogenated nitrobenzylthioinosine analogs as es nucleoside transporter inhibitors” (Bioorg Med Chem Lett, 2004)
